Data: ChEMBL document CHEMBL1138490, “Gamma-aminobutyric acid amides of nortriptyline and fluoxetine display improved pain suppressing activity” (2009)
Calls of active or inactive are those of the source. The calls are words filed in the database; no cut-off is given here.

Key:
Mus musculus [1] = test: Anxiolytic activity in BALB/c mouse assessed as velocity at equimolar oral dose relative to 20 mg/kg fluoxetine after 90 mins by open-field test (RVb= 7.07+/-0.51 cm/s); format: functional
Mus musculus [2] = test: Antinociceptive activity in BALB/c mouse assessed as increase in paw withdrawal latency time at 10 mg/kg, po daily measured after 3 to 5 hrs on day 1 on day 1 to 11; format: functional, organism-based; design: dose 10 mg/kg
Mus musculus [3] = test: Antinociceptive activity in BALB/c mouse assessed as increase in paw withdrawal latency time at 10 mg/kg, po equimolar dose of fluoxetine daily measured after 3 to 5 hrs on day 1 to 11; format: functional, organism-based; design: dose 10 mg/kg
Mus musculus [4] = test: Antinociceptive activity against formalin-induced neurogenic pain in BALB/c mouse assessed paw licking, biting or shaking at 30 mg/kg, po administered 2 hrs before formalin challenge measured relative to control; format: functional, organism-based; design: dose 30 mg/kg
Mus musculus [5] = test: Antinociceptive activity against formalin-induced neurogenic pain in BALB/c mouse assessed paw licking, biting or shaking during at 10 mg/kg, po administered 2 hrs before formalin challenge measured relative to control; format: functional, organism-based; design: dose 10 mg/kg
Mus musculus [6] = test: Antinociceptive activity against formalin-induced neurogenic pain in BALB/c mouse assessed paw licking, biting or shaking at to 30 mg/kg, po equimolar dose of fluoxetine administered 2 hrs before formalin challenge measured relative to control; format: functional, organism-based; design: dose 30 mg/kg
Mus musculus [7] = test: Antinociceptive activity against formalin-induced neurogenic pain in BALB/c mouse assessed paw licking, biting or shaking during at 10 mg/kg, po equimolar oral dose fluoxetine administered 2 hrs before formalin challenge measured relative to control; format: functional, organism-based; design: dose 10 mg/kg
Mus musculus [8] = test: Anxiolytic activity in BALB/c mouse assessed as immobility at equimolar oral dose relative to 5 mg/kg fluoxetine after 90 mins by open-field test (RVb= 458.4+/-41 s); format: functional
Mus musculus [9] = test: Anxiolytic activity in BALB/c mouse assessed as immobility at equimolar oral dose relative to 10 mg/kg fluoxetine after 90 mins by open-field test (RVb= 458.4+/-41 s); format: functional
Mus musculus [10] = test: Anxiolytic activity in BALB/c mouse assessed as immobility at equimolar oral dose relative to 20 mg/kg fluoxetine after 90 mins by open-field test (RVb= 458.4+/-41 s); format: functional
Mus musculus [11] = test: Anxiolytic activity in BALB/c mouse assessed as distance moved at equimolar oral dose relative to 5 mg/kg fluoxetine after 90 mins by open-field test (RVb= 8485+/-610 cm); format: functional
Mus musculus [12] = test: Anxiolytic activity in BALB/c mouse assessed as distance moved at equimolar oral dose relative to 10 mg/kg fluoxetine after 90 mins by open-field test (RVb= 8485+/-610 cm); format: functional
Mus musculus [13] = test: Anxiolytic activity in BALB/c mouse assessed as distance moved at equimolar oral dose relative to 20 mg/kg fluoxetine after 90 mins by open-field test (RVb= 8485+/-610 cm); format: functional
Mus musculus [14] = test: Anxiolytic activity in BALB/c mouse assessed as velocity at equimolar oral dose relative to 5 mg/kg fluoxetine after 90 mins by open-field test (RVb= 7.07+/-0.51 cm/s); format: functional
Mus musculus [15] = test: Anxiolytic activity in BALB/c mouse assessed as velocity at equimolar oral dose relative to 10 mg/kg fluoxetine after 90 mins by open-field test (RVb= 7.07+/-0.51 cm/s); format: functional
Mus musculus [16] = test: Antinociceptive activity in BALB/c mouse assessed as paw withdrawal latency at 0.4 mg/kg, po after 2 to 4 hrs by hot plate method; format: functional, organism-based; design: dose 0.4 mg/kg
Mus musculus [17] = test: Antinociceptive activity in BALB/c mouse assessed as […] at 10 mg/kg, po equimolar dose of nortriptyline after 240 mins by hot plate method; format: functional, organism-based; design: dose 10 mg/kg
Mus musculus [18] = test: Antinociceptive activity in BALB/c mouse assessed as […] at 20 to 40 mg/kg, po equimolar dose of nortriptyline after 240 mins by hot plate method; format: functional, organism-based
Mus musculus [19] = test: Antinociceptive activity in BALB/c mouse assessed as paw withdrawal latency at 0.4 mg/kg, po equimolar dose of nortriptyline after 2 to 4 hrs by hot plate method; format: functional, organism-based; design: dose 0.4 mg/kg
Mus musculus [20] = test: Antiinflammatory activity against formalin-induced BALB/c mouse skin assessed as reduction in TNFalpha level at to 0.5 mg/kg, po; format: functional, organism-based; design: dose 0.5 mg/kg
Mus musculus [21] = test: Antiinflammatory activity against formalin-induced BALB/c mouse skin assessed as reduction in TNFalpha level at 50 mg/kg, ip; format: functional, organism-based; design: dose 50 mg/kg
Rattus norvegicus [22] = test: Antiinflammatory activity against gamma carrageenan-induced paw edema in Wistar rat assessed as reduction in paw volume at 50 mg/kg, ip administered 2 hrs before carrageenan challenge measured after 4 hrs relative to control; format: functional, organism-based; design: dose 50 mg/kg
Rattus norvegicus [23] = test: Antiinflammatory activity against gamma carrageenan-induced paw edema in Wistar rat assessed as reduction in paw volume at 50 mg/kg, ip administered 2 hrs before carrageenan challenge measured after 24 hrs relative to control; format: functional, organism-based; design: dose 50 mg/kg
Rattus norvegicus [24] = test: Antiinflammatory activity against gamma carrageenan-induced paw edema in Wistar rat assessed as paw volume at 50 mg/kg, ip administered 2 to 4 hrs before carrageenan challenge relative to control; format: functional, organism-based; design: dose 50 mg/kg

With `CN(CCC(Oc1ccc(C(F)(F)F)cc1)c1ccccc1)C(=O)CCCN.Cl` (centres undefined) as the molecule, how does the Activity (Mus musculus [1]) read?
Its Activity is 5.39 cm/s.

And the Activity (Mus musculus [2])?
Its Activity is “Active”.

What about the Activity (Mus musculus [3]) of the same molecule?
The Activity was “Active”.

What about the Activity (Mus musculus [4]) of the same molecule?
Its Activity is “Active”.

And the Activity (Mus musculus [5])?
The Activity was “Active”.

And the Activity (Mus musculus [6])?
The Activity was “Active”.

And the Activity (Mus musculus [7])?
The Activity was “Active”.

And the Activity (Mus musculus [8])?
The Activity was 501.5 s.

And the Activity (Mus musculus [9])?
The Activity was 536.3 s.

What about the Activity (Mus musculus [10]) of the same molecule?
The Activity was 639.9 s.

What about the Activity (Mus musculus [11]) of the same molecule?
The Activity was 7767 cm.

And the Activity (Mus musculus [12])?
The Activity was 8003 cm.

And the Activity (Mus musculus [13])?
Its Activity is 6462 cm.

What about the Activity (Mus musculus [14]) of the same molecule?
Its Activity is 6.47 cm/s.

What about the Activity (Mus musculus [15]) of the same molecule?
The Activity was 6.67 cm/s.

What about the Activity (Mus musculus [16]) of the same molecule?
The Activity was “Active”.

What about the Activity (Mus musculus [17]) of the same molecule?
The Activity was “Active”.

What about the Activity (Mus musculus [18]) of the same molecule?
Its Activity is “Active”.

What about the Activity (Mus musculus [19]) of the same molecule?
Its Activity is “Active”.

How did the Activity (Mus musculus [20]) turn out when `NCC1(CC(=O)O)CCCCC1` was run?
Its Activity is “Active”.

And the Activity (Mus musculus [21])?
Its Activity is “Active”.

What about the Activity (Rattus norvegicus [22]) of the same molecule?
The Activity was “inactive”.

And the Activity (Rattus norvegicus [23])?
The Activity was “inactive”.

And the Activity (Rattus norvegicus [24])?
The Activity was “Active”.
